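Method: 48-hour compound exposure of cells in 96-well plates, five concentrations, linear interpolation of endpoints. The concentration for 50% growth inhibition is given as GI50.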 Activity calls are given as the source filed them. Cut-off read from the data, not from the text of the source: active = GI50 up to about 1.1 µM and inactive = higher.
How the values were obtained:
Experiment in all cases: NCI anticancer screen, dose series, 48 h
NCI/ADR-RES = test system: NCI/ADR-RES
IGROV-1 = test system: IGROV-1
DU-145 = test system: DU-145
CAKI-1 = test system: CAKI-1
SF-295 = test system: SF-295
OVCAR-4 = test system: OVCAR-4
OVCAR-5 = test system: OVCAR-5
MDA-N = test system: MDA-N
OVCAR-3 = test system: OVCAR-3
UACC-257 = test system: UACC-257
SW-620 = test system: SW-620
UACC-62 = test system: UACC-62
TK-10 = test system: TK-10
OVCAR-8 = test system: OVCAR-8
U-251 = test system: U-251
HCC 2998 = test system: HCC 2998
UO-31 = test system: UO-31
SNB-19 = test system: SNB-19
HT-29 = test system: HT-29
RPMI-8226 = test system: RPMI-8226

SMILES	GI50 (NCI/ADR-RES)	GI50 (IGROV-1)	GI50 (DU-145)	GI50 (CAKI-1)	GI50 (SF-295)	GI50 (OVCAR-4)	GI50 (OVCAR-5)	GI50 (MDA-N)	GI50 (OVCAR-3)	GI50 (UACC-257)	GI50 (SW-620)	GI50 (UACC-62)	GI50 (TK-10)	GI50 (OVCAR-8)	GI50 (U-251)	GI50 (HCC 2998)	GI50 (UO-31)	GI50 (SNB-19)	GI50 (HT-29)	GI50 (RPMI-8226)
CC(C)NCC(O)c1cc(OCc2ccccc2)c(OCc2ccccc2)cc1NC(=O)CCC(=O)O (stereo unspecified)	12.9 µM (inactive)	11.4 µM (inactive)	13 µM (inactive)	8.75 µM (inactive)	3.94 µM (inactive)	11.5 µM (inactive)	16.7 µM (inactive)	2.21 µM (inactive)	13.6 µM (inactive)	13.4 µM (inactive)	2.61 µM (inactive)	3.25 µM (inactive)	7.53 µM (inactive)	7.66 µM (inactive)	5.04 µM (inactive)	2.49 µM (inactive)	5.77 µM (inactive)	12.6 µM (inactive)	3.75 µM (inactive)	2.81 µM (inactive)
CC(=O)c1cc2c(s1)C(=O)c1scc(C(C)=O)c1C2=O	0.24 µM (active)	0.514 µM (active)	1.52 µM (inactive)	0.929 µM (active)	0.883 µM (active)	0.197 µM (active)	1.57 µM (inactive)	0.198 µM (active)	0.0738 µM (active)	0.223 µM (active)	0.394 µM (active)	0.26 µM (active)	3.52 µM (inactive)	0.23 µM (active)	0.228 µM (active)	1.98 µM (inactive)	0.455 µM (active)	1.15 µM (inactive)	1.81 µM (inactive)	0.209 µM (active)
C=C(C)COc1cc(/N=C(/S)OC(C)C)ccc1Cl	15.2 µM (inactive)	16.6 µM (inactive)	16.7 µM (inactive)	15.3 µM (inactive)	15.5 µM (inactive)	14.5 µM (inactive)	15.7 µM (inactive)	16.7 µM (inactive)	15.8 µM (inactive)	17.3 µM (inactive)	13.7 µM (inactive)	17.3 µM (inactive)	15.2 µM (inactive)	16.2 µM (inactive)	16.9 µM (inactive)	15.5 µM (inactive)	13.5 µM (inactive)	18.8 µM (inactive)	14.4 µM (inactive)	20 µM (inactive)
O=C(/C=C/c1ccccc1)C[C@@H](O)C[C@@H]1CC=CC(=O)O1	20.5 µM (inactive)	6.85 µM (inactive)	17.2 µM (inactive)	14.2 µM (inactive)	13.7 µM (inactive)	15.2 µM (inactive)	20 µM (inactive)	4.76 µM (inactive)	3.75 µM (inactive)	13.6 µM (inactive)	2.35 µM (inactive)	8.97 µM (inactive)	14.9 µM (inactive)	3.32 µM (inactive)	8.69 µM (inactive)	5.93 µM (inactive)	9.18 µM (inactive)	15.9 µM (inactive)	5.13 µM (inactive)	2.61 µM (inactive)
O=C(O)/C=C/c1ccc(OS(=O)(=O)O)cc1	> 100 µM (inactive)	> 100 µM (inactive)	> 100 µM (inactive)	> 100 µM (inactive)	> 100 µM (inactive)	> 100 µM (inactive)	> 100 µM (inactive)	> 100 µM (inactive)	> 100 µM (inactive)	> 100 µM (inactive)	> 100 µM (inactive)	> 100 µM (inactive)	> 100 µM (inactive)	> 100 µM (inactive)	> 100 µM (inactive)	> 100 µM (inactive)	> 100 µM (inactive)	> 100 µM (inactive)	> 100 µM (inactive)	> 100 µM (inactive)
Clc1ccc(-c2cc(-c3nc4ccccc4[nH]3)no2)cc1	23.6 µM (inactive)	22.6 µM (inactive)	11.4 µM (inactive)	18.3 µM (inactive)	17.3 µM (inactive)	17.7 µM (inactive)	18.7 µM (inactive)	17.5 µM (inactive)	18.5 µM (inactive)	18.8 µM (inactive)	22.4 µM (inactive)	14.6 µM (inactive)	21.9 µM (inactive)	33.8 µM (inactive)	–	18.6 µM (inactive)	19 µM (inactive)	19.6 µM (inactive)	18.2 µM (inactive)	24.3 µM (inactive)
CC(=O)[C@]1(O)Cc2c(O)c3c(c(O)c2C(OC2OC(C)C(O)C(O)C2F)C1)C(=O)c1ccccc1C3=O (stereo partly specified)	0.318 µM (active)	0.0419 µM (active)	0.0502 µM (active)	0.013 µM (active)	< 0.014 µM (active)	0.914 µM (active)	0.125 µM (active)	0.475 µM (active)	0.568 µM (active)	0.225 µM (active)	0.0796 µM (active)	0.0791 µM (active)	0.197 µM (active)	0.0238 µM (active)	< 0.0159 µM (active)	0.208 µM (active)	< 0.01 µM (active)	< 0.0199 µM (active)	0.109 µM (active)	< 0.0299 µM (active)
O=c1[nH]ncc2[nH]c3c(c12)CCCc1ccccc1-3	37.9 µM (inactive)	55.2 µM (inactive)	54.5 µM (inactive)	35.2 µM (inactive)	32.5 µM (inactive)	44.5 µM (inactive)	43.4 µM (inactive)	29.6 µM (inactive)	48.4 µM (inactive)	71.8 µM (inactive)	43.2 µM (inactive)	23.7 µM (inactive)	50.1 µM (inactive)	53.6 µM (inactive)	38.6 µM (inactive)	27.9 µM (inactive)	43.4 µM (inactive)	71.6 µM (inactive)	31.1 µM (inactive)	27.8 µM (inactive)
C[n+]1cccc(/C=C/c2ccc3cccc(O)c3n2)c1	> 100 µM (inactive)	> 100 µM (inactive)	> 100 µM (inactive)	> 100 µM (inactive)	> 100 µM (inactive)	> 100 µM (inactive)	> 100 µM (inactive)	> 100 µM (inactive)	27 µM (inactive)	> 100 µM (inactive)	> 100 µM (inactive)	> 100 µM (inactive)	> 100 µM (inactive)	72.3 µM (inactive)	49.2 µM (inactive)	> 100 µM (inactive)	> 100 µM (inactive)	42 µM (inactive)	> 100 µM (inactive)	> 100 µM (inactive)
Clc1nncc2sc(-c3ccccc3)nc12	23.2 µM (inactive)	8.67 µM (inactive)	6.62 µM (inactive)	0.2 µM (active)	27.1 µM (inactive)	18.4 µM (inactive)	83.2 µM (inactive)	21.6 µM (inactive)	6.41 µM (inactive)	18.3 µM (inactive)	21 µM (inactive)	16.4 µM (inactive)	40.9 µM (inactive)	20.1 µM (inactive)	15 µM (inactive)	8.45 µM (inactive)	19.9 µM (inactive)	17.9 µM (inactive)	20.3 µM (inactive)	35.4 µM (inactive)
CCOC(=O)C(=CNc1ccc(NC2=NCC(C)S2)cc1)C(=O)OCC (stereo unspecified)	23.1 µM (inactive)	26.8 µM (inactive)	46.5 µM (inactive)	45.3 µM (inactive)	29.6 µM (inactive)	9.62 µM (inactive)	> 100 µM (inactive)	25.7 µM (inactive)	18.2 µM (inactive)	26.5 µM (inactive)	31 µM (inactive)	11 µM (inactive)	46.1 µM (inactive)	24.5 µM (inactive)	26.2 µM (inactive)	33.4 µM (inactive)	17.8 µM (inactive)	37.8 µM (inactive)	23.6 µM (inactive)	9.48 µM (inactive)
Cc1cc(N(CCC#N)CCC#N)ccc1C(/N=N/c1ccc([N+](=O)[O-])cc1)=N\NC(=O)c1ccccc1	51.5 µM (inactive)	47 µM (inactive)	48 µM (inactive)	72.1 µM (inactive)	19.5 µM (inactive)	61 µM (inactive)	> 100 µM (inactive)	6.25 µM (inactive)	46.1 µM (inactive)	61.8 µM (inactive)	–	31 µM (inactive)	61.9 µM (inactive)	56.5 µM (inactive)	42.3 µM (inactive)	40.5 µM (inactive)	34.4 µM (inactive)	40.6 µM (inactive)	24.5 µM (inactive)	75.9 µM (inactive)
CSc1c([S+](C)[O-])c2ccccc2n1C (stereo unspecified)	> 100 µM (inactive)	> 100 µM (inactive)	> 100 µM (inactive)	> 100 µM (inactive)	> 100 µM (inactive)	> 100 µM (inactive)	> 100 µM (inactive)	> 100 µM (inactive)	> 100 µM (inactive)	> 100 µM (inactive)	> 100 µM (inactive)	> 100 µM (inactive)	> 100 µM (inactive)	> 100 µM (inactive)	–	> 100 µM (inactive)	> 100 µM (inactive)	> 100 µM (inactive)	> 100 µM (inactive)	> 100 µM (inactive)
COC(=O)[C@]12CSC[C@H]1C[C@H](c1ccccc1OC)N2	> 100 µM (inactive)	85.9 µM (inactive)	> 100 µM (inactive)	> 100 µM (inactive)	> 100 µM (inactive)	> 100 µM (inactive)	> 100 µM (inactive)	> 100 µM (inactive)	> 100 µM (inactive)	> 100 µM (inactive)	> 100 µM (inactive)	> 100 µM (inactive)	> 100 µM (inactive)	> 100 µM (inactive)	> 100 µM (inactive)	> 100 µM (inactive)	> 100 µM (inactive)	> 100 µM (inactive)	–	> 100 µM (inactive)

Source: ChEMBL document CHEMBL1201862, “PubChem BioAssay data set” (2004)
